From article PMC7265341, “Quantifying CDK inhibitor selectivity in live cells” (Nature Communications, 2020)
Read-outs that look alike come from different tables or passages of the source.

What was measured:
[1] = molecular target: CDK1/Cyclin E1 (Homo sapiens, UniProt P06493); experiment: NanoBRET live-cell target engagement, CDK1-NanoLuc/Cyclin E1 in HEK-293; assay type: binding; conditions: CDK1/E1, 10µM
[2] = molecular target: CDK19/Cyclin C (Homo sapiens, UniProt Q9BWU1); experiment: NanoBRET live-cell target engagement, NanoLuc-CDK19/Cyclin C in HEK-293
[3] = molecular target: CDK16/Cyclin Y (Homo sapiens, UniProt Q00536); experiment: NanoBRET live-cell target engagement, CDK16-NanoLuc/Cyclin Y in HEK-293; assay type: binding; conditions: CDK16/Y, 10µM
[4] = molecular target: CDK13/Cyclin K (Homo sapiens, UniProt Q14004); experiment: NanoBRET live-cell target engagement, CDK13-NanoLuc/Cyclin K in HEK-293; assay type: binding; conditions: CDK13/K, 10µM
[5] = molecular target: CDK11B/Cyclin L2 (Homo sapiens, UniProt P21127); experiment: NanoBRET live-cell target engagement, CDK11B-NanoLuc/Cyclin L2 in HEK-293; assay type: binding; conditions: CDK11b/L2, 10µM
[6] = molecular target: CDK14/Cyclin Y (Homo sapiens, UniProt O94921); experiment: NanoBRET live-cell target engagement, CDK14-NanoLuc/Cyclin Y in HEK-293; assay type: binding; conditions: CDK14/Y, 10µM
[7] = molecular target: CDK5/CDK5R1 (Homo sapiens, UniProt Q00535); experiment: NanoBRET live-cell target engagement, CDK5-NanoLuc/CDK5R1 in HEK-293; assay type: binding; conditions: CDK5/CDK5R1, 10µM
[8] = molecular target: CDK10/Cyclin L2 (Homo sapiens, UniProt Q15131); experiment: NanoBRET live-cell target engagement, CDK10-NanoLuc/Cyclin L2 in HEK-293; conditions: 10µM
[9] = molecular target: CDK17/Cyclin Y (Homo sapiens, UniProt Q00537); experiment: NanoBRET live-cell target engagement, CDK17-NanoLuc/Cyclin Y in HEK-293; assay type: binding; conditions: CDK17/Y, 10µM
[10] = molecular target: CDK20/Cyclin H (Homo sapiens, UniProt Q8IZL9); experiment: NanoBRET live-cell target engagement, NanoLuc-CDK20/Cyclin H in HEK-293; assay type: binding; conditions: CDK20/H, 10µM
[11] = molecular target: CDK4/Cyclin D1 (Homo sapiens, UniProt P11802); experiment: NanoBRET live-cell target engagement, NanoLuc-CDK4/Cyclin D1 in HEK-293; assay type: binding; conditions: CDK4/D1, 10µM
[12] = molecular target: CDK15/Cyclin Y (Homo sapiens, UniProt Q96Q40); experiment: NanoBRET live-cell target engagement, NanoLuc-CDK15/Cyclin Y in HEK-293; assay type: binding; conditions: CDK15/Y, 10µM
[13] = molecular target: CDK8/Cyclin C (Homo sapiens, UniProt P49336); experiment: NanoBRET live-cell target engagement, NanoLuc-CDK8/Cyclin C in HEK-293; assay type: binding; conditions: CDK8/C
[14] = molecular target: CDK12/Cyclin K (Homo sapiens, UniProt Q9NYV4); experiment: NanoBRET live-cell target engagement, CDK12-NanoLuc/Cyclin K in HEK-293; assay type: binding; conditions: CDK12/K, 10µM
[15] = molecular target: T1, CDK11A/Cyclin L2 (Homo sapiens, UniProt Q9UQ88); experiment: NanoBRET live-cell target engagement, CDK11A-NanoLuc/Cyclin L2 in HEK-293; assay type: binding; conditions: CDK11a/L2, 10µM
T1 sequence (Q9UQ88 1-783): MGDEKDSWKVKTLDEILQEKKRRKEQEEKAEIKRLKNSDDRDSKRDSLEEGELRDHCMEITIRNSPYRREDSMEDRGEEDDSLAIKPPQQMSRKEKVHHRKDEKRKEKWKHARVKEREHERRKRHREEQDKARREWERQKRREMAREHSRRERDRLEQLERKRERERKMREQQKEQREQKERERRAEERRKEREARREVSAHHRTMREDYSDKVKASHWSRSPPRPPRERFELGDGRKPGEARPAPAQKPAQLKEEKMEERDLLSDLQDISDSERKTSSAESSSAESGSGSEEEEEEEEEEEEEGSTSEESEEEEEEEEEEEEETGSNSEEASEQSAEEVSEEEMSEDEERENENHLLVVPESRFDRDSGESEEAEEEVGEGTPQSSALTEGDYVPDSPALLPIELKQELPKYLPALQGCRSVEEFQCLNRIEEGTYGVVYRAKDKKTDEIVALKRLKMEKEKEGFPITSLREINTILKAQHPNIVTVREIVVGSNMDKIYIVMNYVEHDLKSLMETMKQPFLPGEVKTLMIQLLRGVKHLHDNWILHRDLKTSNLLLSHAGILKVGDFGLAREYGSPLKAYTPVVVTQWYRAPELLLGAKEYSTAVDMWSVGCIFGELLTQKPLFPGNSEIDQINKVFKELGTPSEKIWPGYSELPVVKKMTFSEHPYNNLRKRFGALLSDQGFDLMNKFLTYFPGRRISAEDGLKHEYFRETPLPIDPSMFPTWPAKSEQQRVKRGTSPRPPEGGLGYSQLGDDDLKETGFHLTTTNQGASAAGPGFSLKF

[16] = molecular target: CDK7 (Homo sapiens, UniProt P50613); experiment: NanoBRET live-cell target engagement, NanoLuc-CDK7 in HEK-293; assay type: binding; conditions: CDK7, 10µM
[17] = average of replicates, read-out: Inhibition at 10µM (%) Average
[18] = read-out: Inhibition at 10µM (%) Replicate 1
[19] = read-out: Inhibition at 10µM (%) Replicate 2

CDK10/Cyclin L2, sequence (Q15131 whole entry): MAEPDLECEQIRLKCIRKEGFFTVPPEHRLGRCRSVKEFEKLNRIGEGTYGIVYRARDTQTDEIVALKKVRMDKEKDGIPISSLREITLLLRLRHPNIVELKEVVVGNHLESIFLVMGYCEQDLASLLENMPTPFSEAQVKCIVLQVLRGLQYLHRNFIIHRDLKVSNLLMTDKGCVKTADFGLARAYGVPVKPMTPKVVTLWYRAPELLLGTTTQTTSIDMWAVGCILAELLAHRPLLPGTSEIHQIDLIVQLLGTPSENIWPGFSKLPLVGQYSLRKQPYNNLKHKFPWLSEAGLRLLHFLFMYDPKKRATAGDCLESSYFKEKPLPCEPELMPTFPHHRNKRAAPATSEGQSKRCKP
CDK5/CDK5R1, sequence (Q00535 whole entry): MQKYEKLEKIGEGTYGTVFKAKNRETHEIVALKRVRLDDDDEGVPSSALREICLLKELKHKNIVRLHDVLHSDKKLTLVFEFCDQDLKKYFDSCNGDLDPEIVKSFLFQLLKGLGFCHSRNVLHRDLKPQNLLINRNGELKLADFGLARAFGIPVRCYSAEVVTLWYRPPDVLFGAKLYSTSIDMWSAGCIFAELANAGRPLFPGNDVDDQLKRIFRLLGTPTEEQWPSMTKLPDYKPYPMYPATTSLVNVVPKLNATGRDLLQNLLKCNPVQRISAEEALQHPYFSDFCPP
CDK5/CDK5R1, sequence (Q15078 whole entry partner): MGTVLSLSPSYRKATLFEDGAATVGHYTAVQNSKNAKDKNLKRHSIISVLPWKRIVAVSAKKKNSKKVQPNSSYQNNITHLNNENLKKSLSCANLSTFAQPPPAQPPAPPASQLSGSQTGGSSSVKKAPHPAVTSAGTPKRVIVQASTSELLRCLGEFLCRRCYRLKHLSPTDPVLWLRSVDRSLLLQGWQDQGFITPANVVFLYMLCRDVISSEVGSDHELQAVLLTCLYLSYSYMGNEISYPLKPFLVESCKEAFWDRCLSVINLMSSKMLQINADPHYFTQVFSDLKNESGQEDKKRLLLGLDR
CDK19/Cyclin C, sequence (Q9BWU1 whole entry): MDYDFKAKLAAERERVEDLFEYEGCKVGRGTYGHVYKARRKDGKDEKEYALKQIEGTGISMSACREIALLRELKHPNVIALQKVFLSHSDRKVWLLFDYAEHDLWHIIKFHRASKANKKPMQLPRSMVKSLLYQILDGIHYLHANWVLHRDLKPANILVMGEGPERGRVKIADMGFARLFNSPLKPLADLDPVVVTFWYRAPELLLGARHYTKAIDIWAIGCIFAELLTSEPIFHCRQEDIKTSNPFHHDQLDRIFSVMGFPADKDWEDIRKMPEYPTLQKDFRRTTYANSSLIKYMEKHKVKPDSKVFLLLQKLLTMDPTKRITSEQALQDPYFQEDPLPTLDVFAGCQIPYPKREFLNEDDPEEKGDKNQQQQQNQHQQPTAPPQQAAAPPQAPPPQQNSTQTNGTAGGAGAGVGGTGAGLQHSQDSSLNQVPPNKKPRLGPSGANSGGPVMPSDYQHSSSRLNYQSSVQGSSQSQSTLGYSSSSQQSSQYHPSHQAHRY
CDK19/Cyclin C, sequence (P24863 whole entry partner): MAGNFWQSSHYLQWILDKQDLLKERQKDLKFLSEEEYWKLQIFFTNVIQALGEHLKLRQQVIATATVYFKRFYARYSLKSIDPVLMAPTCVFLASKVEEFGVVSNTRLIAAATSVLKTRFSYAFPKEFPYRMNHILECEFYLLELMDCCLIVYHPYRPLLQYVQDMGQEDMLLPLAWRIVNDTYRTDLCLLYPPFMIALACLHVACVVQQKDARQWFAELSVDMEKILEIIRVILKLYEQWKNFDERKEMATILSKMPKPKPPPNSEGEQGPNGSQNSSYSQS
CDK15/Cyclin Y, sequence (Q96Q40 whole entry): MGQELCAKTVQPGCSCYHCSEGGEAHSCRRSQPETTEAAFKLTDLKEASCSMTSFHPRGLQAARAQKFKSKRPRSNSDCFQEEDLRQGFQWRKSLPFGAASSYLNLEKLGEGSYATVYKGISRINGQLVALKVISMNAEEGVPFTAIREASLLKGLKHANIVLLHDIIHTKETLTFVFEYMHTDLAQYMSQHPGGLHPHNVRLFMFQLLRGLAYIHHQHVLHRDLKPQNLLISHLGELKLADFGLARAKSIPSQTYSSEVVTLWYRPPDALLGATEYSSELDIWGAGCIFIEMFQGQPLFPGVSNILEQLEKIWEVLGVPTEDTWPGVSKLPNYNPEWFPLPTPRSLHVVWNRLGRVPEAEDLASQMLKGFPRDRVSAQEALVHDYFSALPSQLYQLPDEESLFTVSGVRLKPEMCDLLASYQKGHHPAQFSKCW
CDK15/Cyclin Y, sequence (Q8ND76 whole entry partner): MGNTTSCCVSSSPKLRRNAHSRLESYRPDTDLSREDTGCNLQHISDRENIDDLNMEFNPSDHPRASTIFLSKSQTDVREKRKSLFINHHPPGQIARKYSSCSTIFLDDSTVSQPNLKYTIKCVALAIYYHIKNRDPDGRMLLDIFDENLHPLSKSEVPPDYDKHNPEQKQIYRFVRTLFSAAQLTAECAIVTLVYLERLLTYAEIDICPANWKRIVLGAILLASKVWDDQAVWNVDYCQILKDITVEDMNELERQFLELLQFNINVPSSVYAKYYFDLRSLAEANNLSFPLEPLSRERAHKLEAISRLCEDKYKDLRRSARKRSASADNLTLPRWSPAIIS
CDK14/Cyclin Y, sequence (O94921 whole entry): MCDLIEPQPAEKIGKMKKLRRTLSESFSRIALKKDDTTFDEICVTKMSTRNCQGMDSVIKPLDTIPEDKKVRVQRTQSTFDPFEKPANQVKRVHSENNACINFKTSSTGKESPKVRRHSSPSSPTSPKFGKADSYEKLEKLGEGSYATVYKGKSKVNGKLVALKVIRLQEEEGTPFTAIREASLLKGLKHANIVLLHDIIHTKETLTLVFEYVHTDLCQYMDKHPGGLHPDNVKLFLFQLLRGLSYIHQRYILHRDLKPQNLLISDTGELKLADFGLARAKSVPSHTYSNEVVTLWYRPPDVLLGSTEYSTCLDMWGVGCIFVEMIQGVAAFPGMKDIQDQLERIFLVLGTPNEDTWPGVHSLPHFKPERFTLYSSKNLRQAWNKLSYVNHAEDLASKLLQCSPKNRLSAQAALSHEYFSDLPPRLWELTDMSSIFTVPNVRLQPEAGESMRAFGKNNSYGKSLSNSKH
CDK14/Cyclin Y, sequence (Q8ND76 whole entry partner): as the sequence (Q8ND76 whole entry partner) above
CDK17/Cyclin Y, sequence (Q00537 whole entry): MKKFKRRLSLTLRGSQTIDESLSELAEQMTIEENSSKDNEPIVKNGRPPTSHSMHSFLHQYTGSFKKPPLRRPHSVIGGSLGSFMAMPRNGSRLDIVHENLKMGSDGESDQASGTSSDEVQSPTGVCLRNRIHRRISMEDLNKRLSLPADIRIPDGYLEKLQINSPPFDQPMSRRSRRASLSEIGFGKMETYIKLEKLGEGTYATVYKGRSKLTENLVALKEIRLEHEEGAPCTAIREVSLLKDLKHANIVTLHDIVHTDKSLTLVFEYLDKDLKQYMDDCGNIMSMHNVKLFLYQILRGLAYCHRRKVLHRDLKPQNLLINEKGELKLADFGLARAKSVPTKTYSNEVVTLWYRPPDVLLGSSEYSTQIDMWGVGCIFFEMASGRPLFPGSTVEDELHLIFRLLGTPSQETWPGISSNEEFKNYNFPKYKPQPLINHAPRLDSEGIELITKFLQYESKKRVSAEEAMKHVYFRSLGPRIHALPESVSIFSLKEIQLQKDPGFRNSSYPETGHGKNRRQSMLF
CDK17/Cyclin Y, sequence (Q8ND76 whole entry partner): as the sequence (Q8ND76 whole entry partner) above
CDK11B/Cyclin L2, sequence (P21127 1-782 isoform P21127-2): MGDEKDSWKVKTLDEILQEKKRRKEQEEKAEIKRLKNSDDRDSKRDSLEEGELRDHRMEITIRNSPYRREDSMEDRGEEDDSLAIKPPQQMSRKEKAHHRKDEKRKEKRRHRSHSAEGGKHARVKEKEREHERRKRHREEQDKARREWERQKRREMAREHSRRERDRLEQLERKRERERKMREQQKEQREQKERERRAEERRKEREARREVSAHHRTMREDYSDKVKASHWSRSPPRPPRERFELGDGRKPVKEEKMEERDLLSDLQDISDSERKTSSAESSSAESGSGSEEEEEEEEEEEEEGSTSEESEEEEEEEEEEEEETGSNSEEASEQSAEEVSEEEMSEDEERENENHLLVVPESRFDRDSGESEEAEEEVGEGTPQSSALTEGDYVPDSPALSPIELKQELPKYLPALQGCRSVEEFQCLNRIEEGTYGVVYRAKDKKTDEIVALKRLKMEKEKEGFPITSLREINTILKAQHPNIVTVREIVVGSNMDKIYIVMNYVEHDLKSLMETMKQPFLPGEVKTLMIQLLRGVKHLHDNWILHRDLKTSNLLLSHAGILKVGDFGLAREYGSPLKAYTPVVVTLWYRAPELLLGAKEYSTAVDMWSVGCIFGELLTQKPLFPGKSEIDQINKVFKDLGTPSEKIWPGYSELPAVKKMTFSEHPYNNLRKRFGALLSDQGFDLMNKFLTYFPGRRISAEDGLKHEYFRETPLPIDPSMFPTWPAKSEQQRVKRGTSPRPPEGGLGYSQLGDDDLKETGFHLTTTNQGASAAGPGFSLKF
CDK8/Cyclin C, sequence (P49336 whole entry): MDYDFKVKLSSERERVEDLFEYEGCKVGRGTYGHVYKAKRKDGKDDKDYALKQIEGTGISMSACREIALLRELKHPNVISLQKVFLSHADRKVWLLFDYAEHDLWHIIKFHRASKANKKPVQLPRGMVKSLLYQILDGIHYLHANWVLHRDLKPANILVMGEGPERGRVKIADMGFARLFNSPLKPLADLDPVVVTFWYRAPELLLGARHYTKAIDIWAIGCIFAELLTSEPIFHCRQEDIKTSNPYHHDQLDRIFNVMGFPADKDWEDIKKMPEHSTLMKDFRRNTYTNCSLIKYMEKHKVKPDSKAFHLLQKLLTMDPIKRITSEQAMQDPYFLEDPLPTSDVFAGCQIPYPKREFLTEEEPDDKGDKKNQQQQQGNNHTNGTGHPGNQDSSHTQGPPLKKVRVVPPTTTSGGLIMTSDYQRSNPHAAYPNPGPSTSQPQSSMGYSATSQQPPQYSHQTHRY
CDK8/Cyclin C, sequence (P24863 whole entry partner): as the sequence (P24863 whole entry partner) above

`Cc1ncc(-c2ccnc(Nc3ccc(S(C)(=O)=O)cc3)n2)n1C(C)C` [AZD5438] gave an inhibition at 10 µM [1, 17] of 78.5%, an inhibition at 10 µM [1, 18] of 78.7% and an inhibition at 10 µM [1, 19] of 78.3%. The IC50 ([2]; IC50 (nM) Average*, CDK19/Y, n=3 average ± SEM, n=2 average to 2 significant figures) was 300 nM, the IC50 ([2]; IC50 (nM) Replicate 1, CDK19/C) was 470 nM and the IC50 ([2]; IC50 (nM) Replicate 2, CDK19/C) was 140 nM. For the same compound, the inhibition at 10 µM ([2]; read-out: Inhibition at 10µM (%) Average, CDK19/C, average of replicates) was 92.8%, the inhibition at 10 µM ([2]; read-out: Inhibition at 10µM (%) Replicate 1, CDK19/C) was 90.6% and the inhibition at 10 µM ([2]; read-out: Inhibition at 10µM (%) Replicate 2, CDK19/C) was 95.1%. For the same compound, the inhibition at 10 µM [3, 18] was 90%, the inhibition at 10 µM [3, 19] was 89.6% and the inhibition at 10 µM [4, 17] was 15.8%. For the same compound, the inhibition at 10 µM [4, 18] was 21.6%, the inhibition at 10 µM [4, 19] was 10.1% and the inhibition at 10 µM [5, 17] was 70.1%. The inhibition at 10 µM [5, 18] was 70.5%, the inhibition at 10 µM [5, 19] was 69.7% and the inhibition at 10 µM [6, 17] was 70.3%. It also gave an inhibition at 10 µM [6, 18] of 69.6%, an inhibition at 10 µM [6, 19] of 71% and an inhibition at 10 µM [7, 17] of 90.8%. The inhibition at 10 µM [7, 18] was 87.9%, the inhibition at 10 µM [7, 19] was 93.8% and the inhibition at 10 µM ([8]; read-out: Inhibition at 10µM (%) Average, CDK10/L2, average of replicates) was 64.8%. It also gave an inhibition at 10 µM ([8]; read-out: Inhibition at 10µM (%) Replicate 1, CDK10/L2) of 63.3%, an inhibition at 10 µM ([8]; read-out: Inhibition at 10µM (%) Replicate 2, CDK10/L2) of 66.2% and an inhibition at 10 µM [9, 17] of 90.7%. For the same compound, the inhibition at 10 µM [9, 18] was 91.3%, the inhibition at 10 µM [9, 19] was 90.1% and the inhibition at 10 µM [10, 18] was 22.8%. It also gave an inhibition at 10 µM [10, 19] of 25.6%, an inhibition at 10 µM [11, 17] of 89.9% and an inhibition at 10 µM [11, 18] of 88.9%. For the same compound, the inhibition at 10 µM [11, 19] was 90.9%, the inhibition at 10 µM [12, 17] was 72.1% and the inhibition at 10 µM [12, 18] was 69.4%. For the same compound, the inhibition at 10 µM [12, 19] was 74.8%, the inhibition at 10 µM [13, 17] was 90.5% and the inhibition at 10 µM [13, 18] was 94.1%. It also gave an IC50 ([13]; n=3 average ± SEM, n=2 average to 2 significant figures, read-out: IC50 (nM) Average*) of 200 nM, an IC50 ([13]; read-out: IC50 (nM) Replicate 1) of 330 nM and an IC50 ([13]; read-out: IC50 (nM) Replicate 2) of 79 nM. For the same compound, the inhibition at 10 µM [14, 17] was 17.1%, the inhibition at 10 µM [14, 18] was 15.7% and the inhibition at 10 µM [14, 19] was 18.5%. It also gave an inhibition at 10 µM [15, 17] of 68.9%, an inhibition at 10 µM [15, 18] of 67.5% and an inhibition at 10 µM [15, 19] of 70.3%. The inhibition at 10 µM [16, 17] was 77.1%, the inhibition at 10 µM [16, 18] was 71.7% and the inhibition at 10 µM [16, 19] was 82.5%.
